One assay has as its system Fresh ovarian tumors. The experiment in a line: clonogenic assay on fresh ovarian tumors from patients. It counts as cell-based, human. As for the experimental part:
(§1) (see: Salmon, S.E. et al, Cancer Treat Rep., 1981, 65, 102; Salmon, S.E. et al, N. Engl. J. Med., 1978, 298, 1231;and Albert, DS, Cancer Chemother Pharmacol, 1981, 6, 253). The protocol employed for MTT assays are reported. (see: Mossman T.J. Immunol Methods, 1983, 65, 55).
Fresh ovarian tumors were collected from twelve (12) confirmed ovarian cancer patients. Azimitosene 1c was tested in vitro using the clonogenic assay described by Salmon et al, Salmon et al, and Albert et al (op cit). The IC₅₀ data (the drug concentration required to obtain 50% inhibition of tumor colony formation after 1 hour exposure to test compound) obtained from these assays are shown in Table 1.

A further assay has as its system 8226/S human myeloma. Kind of assay: in vitro screen against 8226/S myeloma. It counts as cell-based. To be noted: read-out: IC₅₀.
Description: as §1
6-(N-Aziridinyl)-7-methyl-2, 3-dihydro - 1H- pyrrolo [1, 2-ª] benzimidazole-5, 8-dione-3-acetate (1c) was screened for in vitro activity against 8226/S human myeloma.
6-(N-Aziridinyl)-7-methyl-2, 3-dihydro - 1H- pyrrolo [1, 2-ª] benzimidazole-5, 8-dione-3-carbamate (1d) was screened for in vitro activity against 8226/S myeloma.

The test system of assay [1] is 110-fold doxorubicin-resistant ovarian cancer (2780/DOX). The experiment in a line: in vitro screen against doxorubicin-resistant ovarian cancer. The conditions noted are these: read-out: IC₅₀. It counts as cell-based.
Description: as §1
(§2) 6-(N-Aziridinyl)-7-methyl-2, 3-dihydro - 1H- pyrrolo [1, 2-a] benzimidazole-5, 8-dione-3-acetate (1c) was screened for in vitro activity against doxorubicin-sensitive ovarian cancer (2780/S) and 110-fold doxorubicin-resistant ovarian cancer (2780/DOX).
(§3) 6-(N-Aziridinyl)-7-methyl-2, 3-dihydro - 1H- pyrrolo [1, 2-ª] benzimidazole-5, 8-dione-3-carbamate (1d) was screened for in vitro activity against doxorubicin-sensitive (2780/S) and doxorubicin-resistant (2780/DOX) ovarian cancer.

The subject of assay [2] is cisplatin-resistant (2008/R) ovarian cancers. Kind of assay: in vitro screen against cisplatin-resistant ovarian cancer. It counts as cell-based. The conditions noted are these: for IC₅₀: in vitro.
Description: as §1
(§4) 6-(N-Aziridinyl)-7-methyl-2, 3-dihydro - 1H- pyrrolo [1, 2-ª] benzimidazole-5, 8-dione-3-acetate (1c) was screened for in vitro activities against cisplatin-sensitive (2008/S) and cisplatin-resistant (2008/R) ovarian cancers.
(§5) 6-(N-Aziridinyl)-7-methyl-2, 3-dihydro - 1H- pyrrolo [1, 2-a] benzimidazole-5, 8-dione-3-carbamate (1d) was screened for in vitro activity against cisplatin-sensitive (2008/S) and cisplatin-resistant (2008/R) ovarian cancers.

The test system of assay [3] is doxorubicin-sensitive ovarian cancer (2780/S). The experiment in a line: in vitro screen against doxorubicin-sensitive ovarian cancer. It counts as cell-based. To be noted: read-out: IC₅₀.
Description: as §1, §2, §3

A further assay relates to WiDr human colon cancer. The experiment in a line: in vitro screen against WiDr colon cancer. It counts as cell-based. The conditions noted are these: read-out: IC₅₀.
Description: as §1
6-(N-Aziridinyl)-7-methyl-2, 3-dihydro - 1H- pyrrolo [1, 2-ª] benzimidazole-5, 8-dione-3-acetate (1c) was screened for in vitro activity against WiDr human colon cancer.
6-(N-Aziridinyl)-7-methyl-2, 3-dihydro - 1H- pyrrolo [1, 2-ª] benzimidazole-5, 8-dione-3-carbamate (1d) was screened for in vitro activity against WiDr/S human colon cancer.

Assay [4] relates to cisplatin-sensitive (2008/S) ovarian cancers. Kind of assay: in vitro screen against cisplatin-sensitive ovarian cancer. Type of assay: cell-based. To be noted: for IC₅₀: in vitro.
Description: as §1, §4, §5

The subject of the next assay is SW480 human colon cancer. The experiment in a line: in vitro screen against SW480 colon cancer. Type of assay: cell-based.
Description: as §1
6-(N-Aziridinyl)-7-methyl-2, 3-dihydro - 1H- pyrrolo [1, 2-ª] benzimidazole-5, 8-dione-3-acetate (1c) was screened for in vitro activity against SW480 human colon cancer.
6-(N-Aziridinyl)-7-methyl-2, 3-dihydro - 1H- pyrrolo [1, 2-ª] benzimidazole-5, 8-dione-3-carbamate (1d) was screened for in vitro activity against SW480 human colon cancer.

Converted amounts (≈) assume the structure as drawn. Read-outs that look alike come from different tables or passages of the source.

On to `CC(=O)OC1CCn2c1nc1c2C(=O)C(C)=C(N2CC2)C1=O` (stereo not drawn) [1c, 6-(N-aziridinyl)-7-methyl-2,3-dihydro-1H-pyrrolo [1,2-a]benzimidazole-5,8-dione-3-Acetate], for which the IC50 entry with Fresh ovarian tumors (50% inhibition of tumor colony formation after 1 hour exposure, each value is the tumor of one patient (Patient No. 1-12)) is “unachievable”; in the assay with Fresh ovarian tumors (Homo sapiens, median over the fresh ovarian tumors of Table 1, read-out: median IC₅₀), 0.05 µg/mL (≈ 0.166 µM); with 8226/S human myeloma, 100 nM; in assay [1], 16 nM; in assay [2] (Homo sapiens, read-out: IC₅₀) it was 7 nM; in assay [3], 0.6 nM. The IC50 was determined as 6 nM in the assay with WiDr human colon cancer (WiDr); 7 nM in assay [4] (Homo sapiens, read-out: IC₅₀); 9 nM in the assay with SW480 human colon cancer (SW480, read-out: IC₅₀). For the same molecule, the “ovarian cancers that respond” value with Fresh ovarian tumors (share of the 12 fresh ovarian tumors of Table 1) was 91%.

Regarding `CO[C@@]12[C@H](COC(N)=O)C3=C(C(=O)C(C)=C(N)C3=O)N1C[C@@H]1N[C@@H]12` [MMC, mitomycin C, reference compound], the IC50 in the assay on 8226/S human myeloma (8226/S, in vitro) came to 200 nM; in assay [1] (2780/DOX, in vitro), 200 nM; in assay [3] (2780/S, in vitro) it was 100 nM; in the assay on WiDr human colon cancer (WiDr (WiDr/S), in vitro) it was 20 nM; in the assay on SW480 human colon cancer (SW480, in vitro, read-out: IC₅₀) it was 7 nM. In addition, the IC₅₀ result in assay [2] and in assay [4] was “not attainable” each time.

With `CC1=C(N2CC2)C(=O)c2nc3n(c2C1=O)CCC3OC(N)=O` (stereo not drawn) [1d, 6-N-Aziridinyl-7-methyl-2,3-dihydro-1H-pyrrolo [1,2-a]benzimidazole-5,8-dione-3-Carbamate], the IC50 in the assay on 8226/S human myeloma turned out to be 140 nM; in assay [1], 200 nM; in assay [3] it was 100 nM; with WiDr human colon cancer (WiDr) it was 100 nM; in the assay on SW480 human colon cancer (SW480, read-out: IC₅₀), 19 nM. Besides, the IC₅₀ entry in assay [2] and in assay [4] was “not attainable” each time.

The values above are taken from patent EP0449649A2, “Antineoplastic quinones and methods of using same” (priority 1990, dated 1991).
